One data set has as its system HeLa. The data set is described as follows: MTT cytotoxicity assay, HeLa. The data set is classed as cell-based, human. The conditions noted are these: 48 h. As to the method:
(§1) We evaluated the cytotoxicity of 1c-6c, 1d-7d and of the positive control 1a-5a against a panel of human cancer cells using MTT (3-(4,5-dimethylthiazol-2-yl)-2,5-diphenyltetrazolium bromide) assay. The IC50 values were calculated based on three parallel experiments.
(§2) Cisplatin and oxaliplatin were purchased from Yurui Chemical Co. Ltd. (Shanghai, China). All of the other chemicals were obtained from commercial suppliers, such as Alfa […]
(§3) IonSpec QFT mass spectrometer with ESI ionization. 3-(4,5-dimethylthiazol-2-yl) […]
(§4) Phosphate-buffered saline (PBS) contains 137 mM
(§5) NaCl, 2.7 mM KCl, 10 mM Na2HPO4 and 2 mM KH2PO4. Fetal bovine serum (FBS), 0.25% trypsin/EDTA solution, and penicillin-streptomycin solution were purchased from […]
(§6) Invitrogen (Grand Island, NY, USA). […]
(§7) HeLa (cervical carcinoma cell line), MCF-7 (breast gland adenocarcinoma), LNCaP and PC3 (prostatic cancer), HepG-2 (hepatocellular carcinoma), A549 and A549R (lung carcinoma) were used for the MTT […]
(§8) In Vitro Cellular Cytotoxicity Assays
(§9) Cells seeded in 96-well plates were incubated in a 5% CO2 atmosphere in 100 µL of complete medium at 37 ℃ for 24 h. Then, 100 µL of freshly prepared culture medium containing drugs at different concentrations was added and incubated for another 48 h.
(§10) MTT (5 mg/mL, 20 µL) was added and incubated for 3 h. Finally, the medium was removed, and DMSO (150 µL) was added. The absorbance was measured at 570 nm using a Bio-Rad 680 microplate reader. The IC50 values were calculated using GraphPad […]
(§11) Prism software. […]

The test system of another data set is MCF-7. Briefly: MTT cytotoxicity assay, MCF-7. The data set is classed as cell-based, human. The settings on record: 48 h. The procedure: as §1, §2, §3, §4, §5, §6, §7, §8, §9, §10, §11
On the technique in general: Formazan colour is commonly taken as a measure of viable cells.

Another data set has as its system LNCaP. Briefly: MTT cytotoxicity assay, LNCaP. The data set is classed as cell-based, human. The conditions noted are these: 48 h. As to the method:
as §1, §2, §3, §4, §5, §6, §7, §8, §9, §10, §11

The next data set has as its system PC3. The data set is described as follows: MTT cytotoxicity assay, PC3. It counts as cell-based, human. The settings on record: 48 h. The procedure:
as §1, §2, §3, §4, §5, §6, §7, §8, §9, §10, §11

The next data set relates to HepG-2. The data set is described as follows: MTT cytotoxicity assay, HepG-2. It counts as cell-based, human. The settings on record: 48 h. The procedure:
as §1, §2, §3, §4, §5, §6, §7, §8, §9, §10, §11

The subject of another data set is A549. Briefly: MTT cytotoxicity assay, A549. The data set is classed as cell-based, human. The conditions noted are these: 48 h. As to the method:
as §1, §2, §3, §4, §5, §6, §7, §8, §9, §10, §11

A further data set deals with A549R. The data set is described as follows: MTT cytotoxicity assay, A549R (cisplatin-resistant). It counts as cell-based, human. The conditions noted are these: for IC50: MTT, 48 h. As to the method:
as §1, §2, §3, §4, §5, §6, §7, §8, §9, §10, §11

In the next data set the test system is MDCK cells. The data set is described as follows: MTT cytotoxicity with EDG, phloretin, Ctd. in MDCK cells. It counts as cell-based, canine. The conditions noted are these: vs IC50 at 48 h. The source says:
Finally, Madin-Darby canine kidney (MDCK) cells, which are widely used to establish the model of the intestinal epithelium and to evaluate the oral administration and screening of substrates and inhibitors in vitro, were used to find a prodrug with the enhanced potential for oral administration. […] (Figure 10).

On the set-up of data set [1]: method as in printed. The conditions noted are these: comparison values, ref not given; cited from earlier work.
A further data set relates to MCF-7 cells. Briefly: MTT cytotoxicity with GLUT1 inhibitors (EDG, phloretin) and OCT2 inhibitor (Ctd.) in MCF-7 cells. The data set is classed as cell-based, human. As to the method: For cytotoxicity assays, the GLUT1 inhibitors EDG (1) and phloretin (2), the OCT2 inhibitor Ctd. (cimetidine) (3), and the mixture of EDG and Ctd.(4) were selected to undergo a similar procedure as antitumor activity in vitro. MCF-7 cells were seeded on a 96 well plate in 100 μL of RPMI and were incubated for 24 h at 37°C, and EDG-containing RPMI medium, phloretin-containing RPMI medium and Ctd.-containing RPMI medium were used to render the serial dilution of the concentrated solutions of the platinum compounds, and 100 μL/well was added (resulting in final inhibitor concentrations of 75 mM, 100 μM and 3 mM). The cytotoxicity profiles of the compounds were evaluated using MTT assay. […]
as §8, §9
MTT (5 mg/mL, 20 µL) was added and incubated for 3 h. Finally, the medium was removed, and DMSO (150 µL) was added. The absorbance was measured at 570 nm using a Bio-Rad 680 microplate reader. The IC50 values were calculated using GraphPad Prism software. Technical repetitions and independent experiments were based on three […]
For cytotoxicity assays using the GLUT1 inhibitor 4,6-O-ethylidene-α-D-glucose (EDG), phloretin and the OCT2 inhibitor Ctd., a similar procedure as described above was followed except that MCF-7 cells (3500 cells/well) were seeded on a 96 well plate in 100 µL of RPMI and incubated for 24 h at 37 °C. EDG, phloretin and Ctd. containing RPMI medium were used for serial dilution of the concentrated solutions of the platinum compounds, and 100 µL/well were added (resulting in final inhibitor concentrations of 75 mM, 100 µM and 3 mM, respectively). The cytotoxicity profiles of the compounds were evaluated using the MTT assay. […]

In a further data set the test system is 293T. Briefly: Viability of normal cells 293T, 48 h incubation assay. The data set is classed as cell-based. As to the method: (§12) An ideal anticancer compound should be selective for cancer cells over normal healthy cells, thereby mitigating the undesired toxic side effects associated with chemotherapy.
(§13) Scheme 9. Synthetic route of 38b. Conditions and reagents: (a) Ac2O and NaOAc; (b) TMSN3, BF3OEt2, and DCM; (c) MeONa and MeOH rt overnight; (d) BnBr, NaH, and DMF overnight; (e) […]
(§14) Preparation of 46b and 47b
(§15) Compounds 46b (38%) and 47b (45%) were prepared according to the procedure described for compounds 20b and 21b, respectively.
(§16) Compound 48b (45%) was prepared according to the procedure described for compound […]
as §8
(§17) Cells seeded in 96-well plates were incubated in a 5% CO2 atmosphere in 100 µL of complete medium at 37 ℃ for 24 h. […]
(§18) MTT (5 mg/mL, 20 µL) was added and incubated for 3 h. […] The absorbance was measured at 570 nm using a Bio-Rad 680 microplate reader. The IC50 values were calculated using GraphPad Prism software. […]
(§19) For cytotoxicity assays using the GLUT1 inhibitor 4,6-O-ethylidene-α-D-glucose (EDG), phloretin and the OCT2 inhibitor Ctd., a similar procedure as described above was followed except that MCF-7 cells (3500 cells/well) were seeded on a 96 well plate in 100 µL of RPMI and incubated for 24 h at 37 °C. […] The cytotoxicity profiles of the compounds were evaluated using the MTT assay. […]

A further data set has as its system 3T3. The data set is described as follows: Viability of normal cells 3T3, 48 h incubation assay. The data set is classed as cell-based. The procedure: as §12, §13, §14, §15, §16, §8, §17, §18, §19
The nature of another data set: Stability in RPMI 1640. It counts as physicochemical. An excerpt: (§20) One of the advantages of inert Pt(IV) prodrugs is their enhanced stability in RPMI 1640 and whole human blood.
Data set [2] is described as follows: Stability in whole human blood. It counts as in vitro ADME.
Excerpt: as §20

Data on two compounds can be found in article PMC6160541 (Frontiers in Chemistry, 2018).

Like-named read-outs stand apart in the source and are kept apart here.

For `CC(=O)[O][Pt]([NH2])([Cl])([Cl])([NH]C1CCCCC1)[O]C(C)=O` [5a, satraplatin, reference compound], the IC50 was found to be 3.1 ± 0.89 µM in the data set on HeLa; 8.01 ± 0.56 µM with MCF-7; 5.23 ± 1.77 µM with LNCaP; 16.8 ± 1.56 µM in the data set on PC3; 6.7 ± 1.89 µM with HepG-2; 2.17 ± 1.68 µM with A549. This compound displayed an IC50 in the data set with A549R of 9.96 ± 0.57 µM. In addition, the “RF: Resistance factor = IC50(A549R)/IC50(A549)” value in the data set with A549R was 4.59. Also, the “effect of EDG, phloretin, Ctd. and EDG + Ctd. on IC50” value with MDCK cells is listed as “no great differences”. Moreover, in data set [1], the “t1/2 in whole human blood” value is recorded as 6.3 min.

With `O=C(CCC(=O)[O][Pt-2]12([OH])([NH2+][C@@H]3CCCC[C@H]3[NH2+]1)[O]C(=O)C(=O)[O]2)NC[C@H]1OC(O)[C@H](O)[C@@H](O)[C@@H]1O` (some centres unmarked) [6d], the 50% inhibitory concentration (IC50) in the data set on HeLa is 2.88 ± 0.67 µM; in the data set on MCF-7, 0.89 ± 1.34 µM; in the data set on LNCaP, 20 ± 0.79 µM; in the data set with PC3, 66.6 ± 1.45 µM; in the data set with HepG-2, 4.1 ± 1.46 µM; with A549, 29.9 ± 1.78 µM. Besides, the IC50 is 47 ± 1.69 µM in the data set with A549R; 31.8 µM with MCF-7 cells (MCF-7, GLUT1 inhibitor EDG 75 mM, read-out: IC50 with EDG); 38.7 µM in the data set with MCF-7 cells (MCF-7, GLUT1 inhibitor phloretin 100 μM, read-out: IC50 with phloretin); 12.1 µM with 293T; more than 100 µM with 3T3. Further, the “IC50 with EDG, folds higher than 48 h IC50” value in the data set with MCF-7 cells (MCF-7, EDG) turned out to be 36 fold. Further, in the data set with MCF-7 cells (MCF-7, EDG + Ctd.), the “IC50 with mixture of EDG and Ctd., folds higher than 48 h IC50” value is listed as 95 fold. Besides, the “IC50 with Ctd., folds higher than 48 h IC50” value in the data set with MCF-7 cells (MCF-7, OCT2 inhibitor Ctd. 3 mM) turned out to be 82 fold. Moreover, the “IC50 with phloretin, folds higher than 48 h IC50” value in the data set with MCF-7 cells (MCF-7, phloretin) is reported as 44 fold. In the data set “Stability in RPMI 1640” (RPMI 1640), the half-life result was “up to 170 h”. In “Stability in RPMI 1640” (RPMI 1640, after 48 h), the remained unchanged is reported as 66%. Moreover, the decomposition entry in “Stability in RPMI 1640” (RPMI medium, up to 12 h) is “No significant decomposition”. Besides, the “t1/2 in whole human blood” value in data set [2] was approximately 2.5 h.

One may read the IC50 as the concentration that gives 50% inhibition.
